Data reported in US12465472B2, “Methods of insect control for an animal, products thereof and methods for their preparation” (priority 2023, dated 2025).

Columns and labels:
Hermetia illucens larvae [1] = assay: Maggot Inhibitory Assay (MIA) with solutions of insecticide or lidocaine infused into wet chicken feed (Example 3); format: in vivo; conditions: for insecticide or repellant activity as demonstrated by weight loss and maggot death: solution or neat liquid mixed into wet chicken feed, 5 larvae per dish, ~30 °C
Source text: Determination of anti-myiasis activity by solutions of insecticide, or a lidocaine solution, was studied by Maggot Inhibitory Assay (MIA).
Seven (7) Test and Control Articles: Wet chicken feed (positive control), Tetrahydrafuran infused feed (THF; carrier control), Isopropyl Myristate infused feed (IPM; permeation enhancer control), Lidocaine solution infused feed (LD), Ivermectin infused feed (Iver), Imidacloprid infused feed (IMI), Spinosad infused feed (Spin).
One (1) test organism: Hermetia illucens larvae, “medium size” 3rd instar feeding (crop-full), mean weight 45-60 mg.
• Contact Time: 7 Days • Contact Temperature: 30±2° C. Test Method Overview: See FIG. 10 for Diagrammatic Overview.
Fresh wet chicken feed (WCF) and Hermetia illucens larvae (3rd instar feeding (crop-full) mean weight 45-60 mg) were obtained within 48 hours of the start of the testing. A small (60 mm diameter) petri dish served as the test container for each replicate. Solutions of the test substances were added onto the fresh WCF, and then the WCF with solution was placed into the center of the container and weighed. The POS control utilized an approximately similar-sized sample of fresh WCF, without any solution being added. Five (5) larvae were placed on each test and control article infused the fresh WCF. The lid was placed on the petri dish and the dish was wrapped in parafilm. The test and control containers were kept in an incubator at ˜30° C. temperature, in the dark. Larvae were observed daily for up to two (2) weeks, noting motility and pupation.
A portion of the solution was retained in a sealed glass vial for possible QA/QC. The WCF sample with solution added was mixed thoroughly and left in a fume hood for up to 72 hours to let THE evaporate off.
Test and control containers had about 2.0 g of test solution infused WCF placed into the center of the wetted filter paper.
Each test and control article were prepared in the individual 60 mm petri dishes in triplicate as described, >48 hours before study start. Five (5) larvae were weighed as a group and recorded for each test and control article. The lid was placed on the petri fish and this was wrapped in parafilm, as described. The test and control containers were kept in the incubator at temperature ˜30° C. in the dark. Larvae are observed daily up to two weeks, noting observations on food consumption, weight and pupation.
The weight of the 5 larvae in each assay replicate were determined and recorded by: (a) removing the lid and weighing the container without the lid (larvae+WCF+container); and (b) taring the scale and gently placing the 5 larvae into the lid and recording the total weight.
The results are shown in FIG. 11 as weight gain per maggot over time. At time 0, 5 maggots were placed into each of 3 pre-weighed petri dishes WCF mixed with the following, as described: nothing (OTS), Tetrahydrofuran (THF), Isopropyl Myristate (IPM), Lidocaine (LD), Ivermectin (Iver), Imidacloprid (IMI), or Spinosad (Spin). At each indicated time point, the weight of maggots was recorded and divided by the number of maggots per dish to calculate the weight per maggot. The weight per maggot at time 0 was then subtracted from that at each time point to calculate the weight gain per maggot. Bars represent the mean±standard deviation of 3 replicate petri dishes. In FIG. 11, statistical significance for each solution, relative to the OTS control, was determined using a repeated measures mixed effects model and each petri dish as the experimental unit (fixed effects were time, solution, and time×solution interaction; random effects were individual petri dishes and residuals); p-values were corrected for multiple comparisons with Dunnett's test. *, p<0.05; **, p<0.01; ***, p<0.001; ****, p<0.0001.

Hermetia illucens larvae [2] = assay: Maggot Inhibitory Assay (MIA) with ivermectin and lidocaine bands, unused or previously affixed to Holstein calves (Example 4); format: in vivo; conditions: positive control solution (1.31 g in 2.35 g THF) in wet chicken feed
Source text: Evaluation of duration of efficacy of anti-myiasis activity by elastomeric bands loaded/infused with insecticide, with or without an active agent for the topical treatment of pain, was studied via ex vivo tissue and band collection and using Maggot Inhibitory Assay (MIA).
Experimental goal: The aim of this experiment was to assess the long-term function of elastomeric bands infused with insecticide, with or without lidocaine, to inhibit the growth of larvae using the novel MIA test disclosed herein, by evaluating the function of ex vivo tissue biopsies taken from scrotal tissue and drug-infused elastomeric bands which were previously placed on Holstein calves for various time periods (3, 7, 14, 21 and 30 days). The protocol used and presented here is based on published literature (Kotze et al., (2022) “Resistance to dicyclanil and imidacloprid in the sheep blowfly, Lucilia cuprina, in Australia”, Pest Manag Sci, 78:4195-4206).
Ivermectin control: A solution of ivermectin was prepared as a positive control (1.31 g ivermectin into 2.35 g of THF). (n=3)
Exposed ILLB: Elastomeric bands infused with ivermectin and lidocaine that were affixed to scrotal sites and removed at each time point. (n=3×5 experiments=15) […]
Animals were randomly allocated to the study. […] Animal IDs and treatment codes were recorded. […] Animals were monitored for any adverse effects. […]

O=[N+]([O-])NC1=NCCN1Cc1ccc(Cl)nc1 [imidacloprid]
insecticide or repellant activity as demonstrated by weight loss and maggot death (Hermetia illucens larvae [1]): effective insecticide or repellant activity

CCCCCCCCCCCCCC(=O)OC(C)C [isopropyl myristate]
insecticide or repellant activity as demonstrated by weight loss and maggot death (Hermetia illucens larvae [1]): no insecticide or repellant activity

ivermectin
insecticide or repellant activity as demonstrated by weight loss and maggot death (Hermetia illucens larvae [1]): effective insecticide or repellant activity | maggot weight change (Hermetia illucens larvae [2]): a decline or no weight gain

spinosad
insecticide or repellant activity as demonstrated by weight loss and maggot death (Hermetia illucens larvae [1]): effective insecticide or repellant activity

CCN(CC)CC(=O)Nc1c(C)cccc1C [lidocaine solution, lidocaine]
activity as an insecticide compared with commercial insecticides (ivermectin, imidacloprid, spinosad) (Hermetia illucens larvae [1]; lidocaine in solution and infused into an elastomeric band): equivalent to commercial insecticides | insecticide or repellant activity as demonstrated by weight loss and maggot death (Hermetia illucens larvae [1]): effective insecticide or repellant activity

C1CCOC1 [Tetrahydrofuran]
insecticide or repellant activity as demonstrated by weight loss and maggot death (Hermetia illucens larvae [1]): no insecticide or repellant activity
